For one series, the system named is S. aureus (ATCC 6538). The experiment in a line: Antibacterial MIC, standard agar cup diffusion method. Conditions: 24 h; for MIC: Staphylococcus aureus, ATCC6538, 37 °C, read-out: MIC S. aureus (Gram-positive). The series is classed as cell-based, Staphylococcus aureus. The method, then: (§1) The antibacterial and antifungal activities of compounds, ketone 1, 2a-j, and 5a-i were evaluated in vitro against S. aureus (ATCC 6538), P. aeruginosa (ATCC 10,145), E. coli (ATCC 8739), and C. albicans (ATCC 10,231). […] Standard strains of Staphylococcus aureus (ATCC 6538), Pseudomonas aeruginosa (ATCC 10,145), and Escherichia coli (ATCC 8739) were obtained from microbiological resource center, Faculty of Agriculture, Ain Shams University, Cairo, Egypt. All isolates were maintained at -70 °C in Trypticase Soya Broth (TSB, Becton, and Dickinson) with 10% glycerol. Prior to inoculation, all isolates were subcultured at 37 °C for 24 h on Trypticase Soya Agar (TSA, Becton, and Dickinson) and TSB, respectively.
(§2) The plates were rotated slowly to ensure uniform distribution of the microorganisms and then allowed to solidify on a flat surface. After solidification, four equidistant and circular wells of 10 mm diameter were carefully punched using a sterile cork bore. Twofold serial dilutions of the tested compounds using DMSO were performed. An equal volume of 100µL of each dilution was applied separately to each well in three replicates using a micropipette. All plates were incubated at 37 °C for 24 h. The inhibition zones were measured, and their average was calculated.

The test system of the next series is E. coli (ATCC 8739). The series is described as above. The series is classed as cell-based. The following applies: Escherichia coli, ATCC8739, 37 °C, 24 h, read-out: MIC E. coli (Gram-negative). The method, then: as §1, §2
Series [1] has as its system P. aeruginosa (ATCC 10,145). The series is described as above. The series is classed as cell-based. The following applies: Pseudomonas aeruginosa, ATCC 10145, 37 °C, 24 h, read-out: MIC P. aeruginosa (Gram-negative). The method, then: as §1, §2
For series [2], the system named is C. albicans (ATCC 10,231). Put plainly: Antifungal MIC, agar cup diffusion method. Format: cell-based, Candida albicans. Conditions: Sabouraud agar, 37 °C; for MIC: Candida albicans, ATCC 10,231, 24 h, read-out: MIC C. albicans (Fungi). How it is done:
The antibacterial and antifungal activities of compounds, ketone 1, 2a-j, and 5a-i were evaluated in vitro against S. aureus (ATCC 6538), P. aeruginosa (ATCC 10,145), E. coli (ATCC 8739), and C. albicans (ATCC 10,231). […] The antifungal activity of compounds 1, 2a-j, and 5a-i and ketoconazole were determined according to the agar cup diffusion method at Deraya University, Faculty of Pharmacy, Department of Microbiology.
Fungal strains and culture conditions. […] Standard strain of Candida albicans (ATCC 10,231) was obtained from microbiological resource center, Faculty of Agriculture, Ain Shams University, Cairo, Egypt. The isolate was maintained at -70 °C in Trypticase Soya Broth (TSB, Becton, and Dickinson) with 10% glycerol. Prior to inoculation, the isolate was subcultured at 37 °C for 24 h on Trypticase Soya Agar (TSA, Becton, and Dickinson) and TSB, respectively.
as §2

In the next series the target is S. aureus DNA gyrase (Staphylococcus aureus, UniProt P0A0K8+P20831). Put plainly: Staphylococcus aureus DNA gyrase supercoiling assay. The series is classed as biochemical. The following applies: supercoiling of relaxed pBR322, 37 °C, 30 min; read-out: S. aureus DNA gyrase IC50 ± SD. The method, then: As antibacterial agents, fluoroquinolones act by targeting and inhibiting DNA gyrase (topo II) which is an essential enzyme involved in the DNA replication process.
S. aureus DNA gyrase, sequence (P20831 whole entry): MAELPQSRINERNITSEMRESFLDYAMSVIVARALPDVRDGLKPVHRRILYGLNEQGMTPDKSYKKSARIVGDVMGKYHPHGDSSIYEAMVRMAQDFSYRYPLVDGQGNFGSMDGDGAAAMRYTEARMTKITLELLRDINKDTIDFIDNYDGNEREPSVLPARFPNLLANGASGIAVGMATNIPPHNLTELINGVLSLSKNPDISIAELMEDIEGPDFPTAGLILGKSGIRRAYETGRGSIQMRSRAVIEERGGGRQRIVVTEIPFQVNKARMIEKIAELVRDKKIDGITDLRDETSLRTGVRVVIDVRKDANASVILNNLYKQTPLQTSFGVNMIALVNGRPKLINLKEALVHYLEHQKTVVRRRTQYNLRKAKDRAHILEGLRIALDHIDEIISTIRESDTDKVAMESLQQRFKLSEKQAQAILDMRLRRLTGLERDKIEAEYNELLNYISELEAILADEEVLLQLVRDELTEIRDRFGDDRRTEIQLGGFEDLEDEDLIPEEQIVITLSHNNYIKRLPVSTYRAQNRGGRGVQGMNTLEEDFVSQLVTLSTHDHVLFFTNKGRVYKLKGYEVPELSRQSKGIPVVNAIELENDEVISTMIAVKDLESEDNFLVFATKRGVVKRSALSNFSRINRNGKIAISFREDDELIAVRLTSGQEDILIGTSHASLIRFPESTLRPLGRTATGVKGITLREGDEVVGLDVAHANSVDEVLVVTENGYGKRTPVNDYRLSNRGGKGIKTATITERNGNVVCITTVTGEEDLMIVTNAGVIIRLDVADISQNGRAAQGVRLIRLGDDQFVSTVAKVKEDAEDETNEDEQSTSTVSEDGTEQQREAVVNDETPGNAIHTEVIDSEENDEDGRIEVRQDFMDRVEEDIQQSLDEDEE
S. aureus DNA gyrase, sequence (P0A0K8 whole entry): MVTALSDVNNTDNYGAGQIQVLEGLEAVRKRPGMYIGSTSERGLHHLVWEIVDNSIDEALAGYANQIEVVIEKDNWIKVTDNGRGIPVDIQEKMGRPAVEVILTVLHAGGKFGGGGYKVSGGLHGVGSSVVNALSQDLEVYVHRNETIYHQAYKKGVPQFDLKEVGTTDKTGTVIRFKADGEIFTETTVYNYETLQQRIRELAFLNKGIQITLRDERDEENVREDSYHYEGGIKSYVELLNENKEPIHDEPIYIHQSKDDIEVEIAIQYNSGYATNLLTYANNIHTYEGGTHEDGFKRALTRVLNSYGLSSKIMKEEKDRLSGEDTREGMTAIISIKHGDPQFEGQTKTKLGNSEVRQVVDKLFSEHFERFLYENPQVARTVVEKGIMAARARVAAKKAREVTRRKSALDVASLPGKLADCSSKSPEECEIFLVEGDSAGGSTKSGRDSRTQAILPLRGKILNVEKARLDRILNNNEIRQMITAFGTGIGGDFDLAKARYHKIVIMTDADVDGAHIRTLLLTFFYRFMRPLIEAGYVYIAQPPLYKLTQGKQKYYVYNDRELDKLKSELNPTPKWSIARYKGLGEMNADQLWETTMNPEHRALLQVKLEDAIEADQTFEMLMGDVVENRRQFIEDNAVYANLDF
Staphylococcus aureus DNA gyrase was incubated at 37 °C for 30 min in a total reaction volume of 30 μl containing 40 mM HEPES. KOH (pH 7.6), 10 mM magnesium acetate, 10 mM DTT, 2 mM ATP, 500 mM potassium glutamate, 0.05 mg/ml albumin and Relaxed pBR322. DNA gyrase supercoiling reactions catalyzed by S. aureus gyrase, Stop reaction by adding 30 μL of STEB and 30 μL of chloroform/isoamyl alcohol (v:v, 24:1),and then Vortex briefly ~ 5 secs and centrifuge for 1 min. after which 20 µL of this was loaded on a 1% agarose gel that was then run at ~ 75 V for approximately 2 h. The gel was stained by (0.5 mg/L) ethidium bromide in water. Fluorescent images were taken at a wavelength of 300 nm on a UV transilluminator imaging system. The fluorescence intensity of the supercoiled plasmid reaction product was quantitated using ImagQuant software (Molecular Dynamics).

A further series is described as follows: physchem. Conditions: pH 7.8. The method, then: The n-octanol/water apparent partition coefficient at the isoelectric point (or distribution constant) was measured by using the traditional shake-flask technique. The pH of the aqueous buffer was first adjusted to isoelectric point of the compound. The n-octanol and aqueous phases were then mutually saturated before the measurement. […] The samples were agitated for 5h at water bath shaker thermostatized at 25 ± 1^◦C and 100 rpm. The concentration of the solute was determined in the aqueous and organic phases at the isoelectric point by UV spectroscopy the log p value was calculated as follows: […].

Series [3] can be described thus: Solubility determination in phosphate buffer. The series is classed as physicochemical. Conditions: aqueous buffer, thermodynamic from solid. The method, then: A sample of drug was accurately weighed and dissolved in 100 ml of distilled water to prepare 100 mcg/ml stock solutions. Appropriate dilution of the stock solution with phosphate buffer pH 6.8 and 7.8 was then made to prepare a working solution of 40mcg/ml.
After determination of λ max of drug, a calibration curve was constructed by preparing solutions containing different concentrations of (1–5 mcg/ml) from stock solution after appropriate dilution with phosphate buffer pH 6.8. The UV absorbance of the prepared sample solutions were measured at the predetermined λ max using phosphate buffer pH 6.8 as a blank.
Aqueous solubility of the complexes was measured as a function of pH. An excess of each derivative was placed into suitable stoppered containers. […] The samples were immersed in a water bath thermostatized at 37 ± 1^◦C and 100 rpm and periodically shaken for 48 h. Once the equilibrium was reached, the pH of the supernatant was regarded.

Setting [4] is: phosphate buffer pH 6.8, 37 °C, read-out: Solubility pH 6.8.
Where [5] appears, read: phosphate buffer pH 7.8, 37 °C, read-out: Solubility pH 7.8.

≈ marks a conversion by molar mass, not a printed value. Read-outs that look alike come from different tables or passages of the source.

From publication PMC10415461 (Molecular Diversity, 2022) come the findings set out here.

As for `CC(=O)c1ccc(NC(=O)N2CCN(c3cc4c(cc3F)c(=O)c(C(=O)O)cn4C3CC3)CC2)cc1` [Compound 1], the “MIC S. aureus (Gram-positive)” value against S. aureus (ATCC 6538) (37 °C) was found to be 0.70 mg/L (≈ 1.42 µM). For the same compound, the minimum inhibitory concentration (MIC) in the series on S. aureus (ATCC 6538) is 0.7 mg/L (≈ 1.42 µM); with E. coli (ATCC 8739) it was 0.6 mg/L (≈ 1.22 µM); in series [1], 1.2 mg/L (≈ 2.44 µM); in series [2], over 100 mg/L.

As to `O=C(/C=C/c1ccccc1)c1ccc(NC(=O)N2CCN(c3cc4c(cc3F)c(=O)c(C(=O)O)cn4C3CC3)CC2)cc1` [Compound 2a], the IC50 at S. aureus DNA gyrase was found to be 3.47 ± 0.18 µM. This compound displayed a log distribution coefficient (logD) in “physchem” of 0.24. The minimum inhibitory concentration (MIC) in the series with S. aureus (ATCC 6538) was 0.74 mg/L (≈ 1.27 µM); in the series on E. coli (ATCC 8739), 0.64 mg/L (≈ 1.1 µM); in series [1], 1.12 mg/L (≈ 1.93 µM); in series [2], over 100 mg/L. Besides, the figures for the solubility at 48 h in series [3] (setting [4]) and in series [3] (setting [5]) were 0.21 mg/mL (≈ 362 µM) and 0.15 mg/mL (≈ 258 µM), respectively.

Consider `O=C(/C=C/c1ccc(Br)cc1)c1ccc(NC(=O)N2CCN(c3cc4c(cc3F)c(=O)c(C(=O)O)cn4C3CC3)CC2)cc1` [Compound 2d], for which, in the series “physchem”, the pH-dependent lipophilicity (logD) was 0.42. In addition, the MIC is 2.65 mg/L (≈ 4.02 µM) in the series on S. aureus (ATCC 6538), 4.78 mg/L (≈ 7.25 µM) in the series with E. coli (ATCC 8739), 7.25 mg/L (≈ 11 µM) in series [1] and over 100 mg/L in series [2]. Also, the results for the solubility at 48 h in series [3] (setting [4]) and in series [3] (setting [5]) were 0.14 mg/mL (≈ 212 µM) and 0.16 mg/mL (≈ 243 µM), respectively.

Turning to `O=C(/C=C/c1ccc(F)cc1)c1ccc(NC(=O)N2CCN(c3cc4c(cc3F)c(=O)c(C(=O)O)cn4C3CC3)CC2)cc1` [Compound 2e], the IC50 on S. aureus DNA gyrase was found to be 3.81 ± 0.2 µM. The same compound displayed a pH-dependent lipophilicity (logD) in the series “physchem” of 0.07. In addition, the minimal inhibitory concentration (MIC) in the series on S. aureus (ATCC 6538) was 0.89 mg/L (≈ 1.49 µM); with E. coli (ATCC 8739), 0.53 mg/L (≈ 0.885 µM); in series [1], 0.96 mg/L (≈ 1.6 µM); in series [2] it was 2.03 to 3.89 mg/L (≈ 3.39 to 6.5 µM). Also, the “MIC C. albicans (Fungi)” value in series [2] (24 h) came to 2.03 mg/L (≈ 3.39 µM). Besides, the solubility at 48 h worked out at 0.16 mg/mL (≈ 267 µM) in series [3] (setting [4]) and 0.18 mg/mL (≈ 301 µM) in series [3] (setting [5]).

For `Cc1ccc(/C=C/C(=O)c2ccc(NC(=O)N3CCN(c4cc5c(cc4F)c(=O)c(C(=O)O)cn5C4CC4)CC3)cc2)cc1` [Compound 2f], the IC50 on S. aureus DNA gyrase was 1.77 ± 0.09 µM. The log distribution coefficient (logD) in “physchem” was 0.4. The minimum inhibitory concentration (MIC) with S. aureus (ATCC 6538) is 0.94 mg/L (≈ 1.58 µM); in the series with E. coli (ATCC 8739) it was 9.33 mg/L (≈ 15.7 µM); in series [1] it was 3.7 mg/L (≈ 6.22 µM); in series [2] it was over 100 mg/L. Also, the solubility at 48 h was determined as 0.16 mg/mL (≈ 269 µM) in series [3] (setting [4]) and 0.17 mg/mL (≈ 286 µM) in series [3] (setting [5]).

As to `COc1ccc(/C=C/C(=O)c2ccc(NC(=O)N3CCN(c4cc5c(cc4F)c(=O)c(C(=O)O)cn5C4CC4)CC3)cc2)cc1` [Compound 2g], the minimal inhibitory concentration (MIC) is 8 mg/L (≈ 13.1 µM) in the series with S. aureus (ATCC 6538), 17 mg/L (≈ 27.8 µM) in the series with E. coli (ATCC 8739), 6.25 mg/L (≈ 10.2 µM) in series [1] and over 100 mg/L in series [2].

As usually defined, the MIC is the least concentration at which growth counts as inhibited. Usually IC50 stands for the point on the concentration scale where inhibition reaches its midpoint. The logD is lipophilicity at a set pH, counting ionised and neutral species. Low readings indicate a more hydrophilic compound, high ones a more lipophilic compound. As a reminder, the solubility is the concentration that dissolves in the medium under given conditions.
